# System: Rsp5 HECT domain
# Assay: UbiFlu real-time fluorescence polarization kinetics with Rsp5 HECT domain
# Type: biochemical, S. cerevisiae
# Conditions: in the presence of 8× SFlu
smiles,measurement,value
O=C1OC2(c3ccc(O)cc3Oc3cc(O)ccc32)c2ccc(NC(=S)NCCS)cc21 [SFlu],inhibition of UbiFlu consumption,no inhibition

# From patent US10590462B2, “Probes and assays for measuring E3 ligase activity” (NORTHWESTERN UNIVERSITY, priority 2014, dated 2020)
